± gives the standard deviation of the averaged measurements.
Experiments:
HL-60 [1] = assay: area under dose-response curve (viability, 1 nM-10 uM) (fraction (0-1)); higher = more sensitive; conditions: 72 h
In short: (§1)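 A rescreen of the full library used HL-60 cells in RPMI 1640 with 10% FBS on 384-well plates, run in duplicate at five tenfold concentrations (1–10,000 nM). Each screen included DMSO or 100 nM of one of three metabolic inhibitors and ran 72 h at 37 °C, 5% CO2. CellTiter-Glo viability was scaled between DMSO and 10 μM proteasome-inhibitor wells. Any area under the curve comes from four-parameter log-logistic fits with drc and PharmacoGx.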

HL-60 [2] = assay: cell viability (% survival relative to DMSO control); higher = less cytotoxic; conditions: 72 h
In short: as §1

[3] = co-treatment: GSK2194069 100 nM
[4] = co-treatment: pictilisib 100 nM
[5] = 0.001 µM, co-treatment: AZD3965 100 nM
[6] = 0.001 µM, co-treatment: DMSO vehicle
[7] = 0.001 µM, co-treatment: GSK2194069 100 nM
[8] = 0.001 µM, co-treatment: pictilisib 100 nM
[9] = 0.01 µM, co-treatment: AZD3965 100 nM
[10] = 0.01 µM, co-treatment: DMSO vehicle
[11] = 0.01 µM, co-treatment: GSK2194069 100 nM
[12] = 0.01 µM, co-treatment: pictilisib 100 nM
[13] = 0.1 µM, co-treatment: AZD3965 100 nM
[14] = 0.1 µM, co-treatment: DMSO vehicle
[15] = 0.1 µM, co-treatment: GSK2194069 100 nM
[16] = 0.1 µM, co-treatment: pictilisib 100 nM
[17] = 1 µM, co-treatment: AZD3965 100 nM
[18] = 1 µM, co-treatment: DMSO vehicle
[19] = 1 µM, co-treatment: GSK2194069 100 nM
[20] = 1 µM, co-treatment: pictilisib 100 nM
[21] = 10 µM, co-treatment: AZD3965 100 nM
[22] = 10 µM, co-treatment: DMSO vehicle
[23] = 10 µM, co-treatment: GSK2194069 100 nM
[24] = 10 µM, co-treatment: pictilisib 100 nM

| Structure (SMILES) | area under dose-response curve (HL-60 [1]; co-treatment: AZD3965 100 nM) | area under dose-response curve (HL-60 [1]; co-treatment: DMSO vehicle) | area under dose-response curve (HL-60 [1]; [3]) | area under dose-response curve (HL-60 [1]; [4]) | cell viability (HL-60 [2]; [5]) [%] | cell viability (HL-60 [2]; [6]) [%] | cell viability (HL-60 [2]; [7]) [%] | cell viability (HL-60 [2]; [8]) [%] | cell viability (HL-60 [2]; [9]) [%] | cell viability (HL-60 [2]; [10]) [%] | cell viability (HL-60 [2]; [11]) [%] | cell viability (HL-60 [2]; [12]) [%] | cell viability (HL-60 [2]; [13]) [%] | cell viability (HL-60 [2]; [14]) [%] | cell viability (HL-60 [2]; [15]) [%] | cell viability (HL-60 [2]; [16]) [%] | cell viability (HL-60 [2]; [17]) [%] | cell viability (HL-60 [2]; [18]) [%] | cell viability (HL-60 [2]; [19]) [%] | cell viability (HL-60 [2]; [20]) [%] | cell viability (HL-60 [2]; [21]) [%] | cell viability (HL-60 [2]; [22]) [%] | cell viability (HL-60 [2]; [23]) [%] | cell viability (HL-60 [2]; [24]) [%] |
| --- | --- | --- | --- | --- | --- | --- | --- | --- | --- | --- | --- | --- | --- | --- | --- | --- | --- | --- | --- | --- | --- | --- | --- | --- |
| N[C@@H](CC(=O)N1CCn2c(nnc2C(F)(F)F)C1)Cc1cc(F)c(F)cc1F [Sitagliptin] | < 0.0301 | < 0.0301 | < 0.0301 | < 0.0301 | 103 ± 1.8 | 97.61 ± 0.86 | 97.9 ± 1.7 | 82.9 ± 14 | 108 ± 6.3 | 102 ± 1.8 | 104 ± 5.4 | 104 ± 7.1 | 103 ± 1.1 | 100 ± 1.7 | 99.4 ± 5.9 | 99.5 ± 6.1 | 103 ± 1.9 | 101 ± 1.9 | 107 ± 4.7 | 114 ± 13 | 109 ± 19 | 101 ± 2 | 97.9 ± 3.2 | 94.2 ± 17 |
| CCCCCCCC/C=C\CCCCCCCC(=O)Nc1ccccc1 [Octadec-9-Enoic Acid Phenylamide] | < 0.0301 | < 0.0301 | < 0.0301 | < 0.0301 | 99.2 ± 1.6 | 94.5 ± 9.6 | 93 ± 1.7 | 98.2 ± 4.6 | 98.61 ± 0.52 | 91.3 ± 13 | 98 ± 9.1 | 99 ± 3.9 | 104 ± 4.4 | 103 ± 5.8 | 103 ± 4.3 | 106 ± 1.2 | 101 ± 1.6 | 101 ± 3.4 | 98.7 ± 4.8 | 108 ± 10 | 90.3 ± 8.5 | 105 ± 3.8 | 91.5 ± 6.8 | 91.3 ± 8.9 |
| OC[C@H]1O[C@@H](n2cnc3c2N=CNC[C@H]3O)C[C@@H]1O [Pentostatin] | < 0.0301 | < 0.0301 | < 0.0301 | < 0.0301 | 97.8 ± 3.3 | 92.3 ± 12 | 86.6 ± 13 | 89.2 ± 4.1 | 105 ± 3.7 | 105 ± 7.4 | 101 ± 2.8 | 102 ± 3.8 | 100 ± 3.5 | 94.9 ± 6.3 | 98.8 ± 2.3 | 91.2 ± 1.8 | 102 ± 2.8 | 106 ± 2.7 | 101 ± 4.7 | 103 ± 7.5 | 100.2 ± 0.14 | 102 ± 2.5 | 93.96 ± 0.9 | 96.2 ± 1.8 |
| O=C(NCCN1CCC(n2c(O)nc3ccccc32)CC1)c1cc2cc(F)ccc2[nH]1 [FIPI] | < 0.0301 | < 0.0301 | < 0.0301 | < 0.0301 | 104 ± 2.1 | 101.7 ± 0.73 | 98.6 ± 1.2 | 106 ± 9.6 | 99.7 ± 3.9 | 100.3 ± 0.26 | 99.3 ± 1.1 | 105.7 ± 0.28 | 103 ± 14 | 104 ± 2.4 | 102 ± 6.9 | 110 ± 12 | 102 ± 4.5 | 108 ± 4.5 | 106 ± 5.5 | 110 ± 1.8 | 107 ± 3.7 | 107 ± 3 | 91.2 ± 1.8 | 95.5 ± 7.1 |
| CC[C@H](C)[C@H](N)C(=O)N1CCSC1 [P32/98] | < 0.0301 | < 0.0301 | < 0.0301 | < 0.0301 | 99.83 ± 0.39 | 99.4 ± 4 | 99.6 ± 1.6 | 105 ± 1.3 | 97.4 ± 1.5 | 105 ± 3.5 | 100 ± 3.4 | 106 ± 19 | 102 ± 5.5 | 99.5 ± 1.5 | 98.8 ± 3.1 | 96.3 ± 2 | 98.4 ± 1.6 | 98.74 ± 0.79 | 98.7 ± 4.2 | 105 ± 3.8 | 95.6 ± 4 | 97.8 ± 4.4 | 96.6 ± 6.2 | 101 ± 9.5 |
| CC(C)CC(=O)N[C@H](C(=O)N[C@H](C(=O)N[C@@H](CC(C)C)[C@@H](O)CC(=O)N[C@@H](C)C(=O)N[C@@H](CC(C)C)[C@@H](O)CC(=O)O)C(C)C)C(C)C [Pepstatin A] | < 0.0301 | < 0.0301 | < 0.0301 | < 0.0301 | 104 ± 3.4 | 98.3 ± 3.8 | 100 ± 2.5 | 99.8 ± 4.1 | 107 ± 7.4 | 101 ± 1.7 | 108 ± 1.3 | 117 ± 15 | 103 ± 6 | 98.4 ± 2 | 103 ± 7.9 | 98.8 ± 10 | 102 ± 7.8 | 98.35 ± 0.18 | 103 ± 5.4 | 89.9 ± 7 | 102 ± 5.5 | 99.6 ± 6 | 99.9 ± 6.4 | 107 ± 9.8 |
| COc1ccc2c(NC(=O)Nc3cccc(C(F)(F)F)n3)ccnc2c1 | < 0.0301 | < 0.0301 | < 0.0301 | < 0.0301 | 100 ± 3.6 | 101.7 ± 0.71 | 95.4 ± 4.6 | 104 ± 10 | 99.88 ± 0.16 | 82.9 ± 21 | 95.5 ± 3 | 73.9 ± 48 | 104.1 ± 0.52 | 103 ± 2.9 | 99.2 ± 1.9 | 98.4 ± 18 | 101.3 ± 0.29 | 103 ± 5.3 | 95.9 ± 8.1 | 86.5 ± 24 | 101 ± 8.5 | 111 ± 1.3 | 92.5 ± 9.2 | 121 ± 12 |
